Data on 13 compounds can be found in patent US20250313547A1, “CEREBLON LIGANDS AND BIFUNCTIONAL COMPOUNDS COMPRISING THE SAME” (Arvinas Operations, Inc., priority 2017, published 2025).

A word on the DC50: it is the concentration at which degradation of the target reaches its halfway point. Lower therefore signals a more potent degrader.

In this test the test system is androgen receptor (AR). The test is described as follows: AR ELISA assay (androgen receptor degradation). Format: cell-based. The note with it: LNCaP and/or VCaP cells, 5 hours drug treatment; for AR Dmax: % degraded. On the procedure: 5. AR ELISA Assay Protocol
Compounds were evaluated in this assay in LNCaP and/or VCaP cells utilizing similar protocols. The protocols used with VCaP cells are described below. The androgen receptor ELISA assay was performed using PathScan AR Sandwich ELISA (Cell Signaling Catalog #12850) according to the following assay steps:
VCaP cells were seeded at 40,000 cells/well at a volume of 100 µL/well in VCaP assay medium [Phenol red free RPMI (Gibco Cat #11835-030); 5% Charcoal Stripped (Dextran treated) FBS (Omega Scientific, Cat #FB-04); 1% penstrep (Life Technologies, Gibco Cat #: 10378-016)] in Corning 3904 plates. The cells were incubated for a minimum of 3 days. Cells were dosed with PROTACs diluted in 0.01% DMSO and the drug treatment was allowed for 5 hours.
AR ELISA (Cell Signaling) was performed as follows. 1×Cell Signaling Cell lysis buffer was made (Catalogue #9803; comes with the kit). Media from the treated wells is aspirated, and 100 μL 1×cell lysis buffer/well is added. The cells were placed on a shaker for 10 minutes at 4° C. Twenty microliters of lysate was transferred to 100 μl of Diluent in ELISA plate ([…]-0.075 μg/ml). The lysate-diluent mixture was shaken for 30 minutes at 37° C. Allow mouse AR antibody, anti-mouse antibody, TMB, and STOP solution to come to room temperature. The 1×ELISA buffer included in kit was made and loaded in the reservoir. Media from the plates was discarded, the ELISA plate tapped hard on paper towel, and washed 4×200 μl ELISA wash buffer using a plate washer.
One-hundred (100) μL/well of mouse AR detection Ab was added; the plates were covered and shaken at 37° C. for 1 hour; media was discarded from the plates, the plates were tapped on a paper towel, washed 4× with 200 μL ELISA wash buffer with a plate washer.
One-hundred (100) μL/well of anti-mouse—HRP conjugated Ab (comes with the kit) was added; the plates were covered and shaken at 37° C. for 30 minutes; the TMB reagent was allowed to come to room temperature; the media was discard from the plate, the plates were tapped on paper towel, washed 4× with 200 μL of ELISA wash buffer; the plates were tapped the plates on paper towel. One-hundred (100) μL of TMB was added and the plates shaken for 2 minutes—while watching for color development. One-hundred (100) μL Stop solution was added when light blue color developed. Plates were shaken and read at 450 nm.
In general terms: In an ELISA, binding on a coated surface is turned into a signal by an enzyme label.

Consider `CC1(C)[C@H](NC(=O)c2ccc(N3CCC(CN4CCC5(CC4)CC(=O)N(C4CCC(=O)NC4=O)C5=O)CC3)cc2)C(C)(C)[C@H]1Oc1ccc(C#N)c(Cl)c1` (mixture of isomers) [PROTAC-75, rac-N-((1r,3r)-3-(3-chloro-4-cyanophenoxy)-2,2,4,4-tetramethylcyclobutyl)-4-(4-((2-(2,6-dioxopiperidin-3-yl)-1,3-dioxo-2,8-diazaspiro[4.5]decan-8-yl)methyl)piperidin-1-yl)benzamide], for which the “AR Dmax” value was 6C (C <= 50) and the DC50 was ≥ 100 nM.

On to `CC1(C)[C@H](NC(=O)c2ccc(CCCN3CCC4(CC3)CC(=O)N(C3CCC(=O)NC3=O)C4=O)cc2)C(C)(C)[C@H]1Oc1ccc(C#N)c(Cl)c1` (mixture of isomers) [PROTAC-76, rac-N-((1r,3r)-3-(3-chloro-4-cyanophenoxy)-2,2,4,4-tetramethylcyclobutyl)-4-(3-(2-(2,6-dioxopiperidin-3-yl)-1,3-dioxo-2,8-diazaspiro[4.5]decan-8-yl)propyl)benzamide], for which the “AR Dmax” value is on record as “C (C <= 50)” and the 50% degradation concentration (DC50) is ≥ 100 nM.

Turning to `CC1(C)[C@H](NC(=O)c2ccc(/C=C/CN3CCC4(CC3)CC(=O)N(C3CCC(=O)NC3=O)C4=O)cc2)C(C)(C)[C@H]1Oc1ccc(C#N)c(Cl)c1` (mixture of isomers) [PROTAC-77, rac-N-((1r,3r)-3-(3-chloro-4-cyanophenoxy)-2,2,4,4-tetramethylcyclobutyl)-4-((E)-3-(2-(2,6-dioxopiperidin-3-yl)-1,3-dioxo-2,8-diazaspiro[4.5]decan-8-yl)prop-1-en-1-yl)benzamide], the “AR Dmax” value is given as “C (C <= 50)” and the DC50 is ≥ 100 nM.

With `CC1(C)[C@H](NC(=O)c2ccc(CCCCN3CCC4(CC3)CC(=O)N(C3CCC(=O)NC3=O)C4=O)cc2)C(C)(C)[C@H]1Oc1ccc(C#N)c(Cl)c1` (mixture of isomers) [PROTAC-78, rac-N-((1r,3r)-3-(3-chloro-4-cyanophenoxy)-2,2,4,4-tetramethylcyclobutyl)-4-(4-(2-(2,6-dioxopiperidin-3-yl)-1,3-dioxo-2,8-diazaspiro[4.5]decan-8-yl)butyl)benzamide], the “AR Dmax” value is “C (C <= 50)” and the DC50 is ≥ 100 nM.

On to `CC1(C)[C@H](NC(=O)c2ccc(N3CCN(CCCCCCOc4cnn(C5CCC(=O)NC5=O)c(=O)c4)CC3)nc2)C(C)(C)[C@H]1Oc1ccc(C#N)c(Cl)c1` (some centres unmarked) [PROTAC-29, N-((1r,3r)-3-(3-chloro-4-cyanophenoxy)-2,2,4,4-tetramethylcyclobutyl)-6-(4-(6-((1-(2,6-dioxopiperidin-3-yl)-6-oxo-1,6-dihydropyridazin-4-yl)oxy)hexyl)piperazin-1-yl)nicotinamide], for which the “AR Dmax” value is “B (50 < B <= 75)” and the DC50 is < 1 nM.

On to `Cc1nc2c(OCCCCCN3CCN(c4ccc(C(=O)N[C@H]5C(C)(C)[C@H](Oc6ccc(C#N)c(Cl)c6)C5(C)C)cn4)CC3)cccc2c(=O)n1C1CCC(=O)NC1=O` (some centres unmarked) [PROTAC-30, N-((1r,3r)-3-(3-chloro-4-cyanophenoxy)-2,2,4,4-tetramethylcyclobutyl)-6-(4-(5-((3-(2,6-dioxopiperidin-3-yl)-2-methyl-4-oxo-3,4-dihydroquinazolin-8-yl)oxy)pentyl)piperazin-1-yl)nicotinamide], for which the “AR Dmax” value was “C (C <= 50)” and the DC50 is ≥ 100 nM.

Turning to `CC1(C)[C@H](NC(=O)c2ccc(N3CCN(CCCCCOc4ccc5c(c4)S(=O)(=O)N(C4CCC(=O)NC4=O)C5=O)CC3)nc2)C(C)(C)[C@H]1Oc1ccc(C#N)c(Cl)c1` (some centres unmarked) [PROTAC-33, N-((1r,3r)-3-(3-chloro-4-cyanophenoxy)-2,2,4,4-tetramethylcyclobutyl)-6-(4-(5-((2-(2,6-dioxopiperidin-3-yl)-1,1-dioxido-3-oxo-2,3-dihydrobenzo[d]isothiazol-6-yl)oxy)pentyl)piperazin-1-yl)nicotinamide], the “AR Dmax” value is “B (50 < B <= 75)” and the DC50 lay in the range of 1 to 10 nM.

Turning to `CC1(C)[C@H](NC(=O)c2ccc(N3CCN(CCOc4cccc5c4CN(c4ccc(F)cc4F)C5=O)CC3)nc2)C(C)(C)[C@H]1Oc1ccc(C#N)c(Cl)c1` [PROTAC-39, N-((1r,3r)-3-(3-chloro-4-cyanophenoxy)-2,2,4,4-tetramethylcyclobutyl)-6-(4-(2-((2-(2,4-difluorophenyl)-1-oxoisoindolin-4-yl)oxy)ethyl)piperazin-1-yl)nicotinamide], the “AR Dmax” value is 0C (C <= 50) and the DC50 is ≥ 100 nM.

For the compound `CC1(C)[C@H](NC(=O)c2ccc(N3CCN(CCOCCOc4cccc5c4CN(c4ccc(F)cc4F)C5=O)CC3)nc2)C(C)(C)[C@H]1Oc1ccc(C#N)c(Cl)c1` [PROTAC-40, rac-N-((1r,3r)-3-(3-chloro-4-cyanophenoxy)-2,2,4,4-tetramethylcyclobutyl)-6-(4-(2-(2-((2-(2,4-difluorophenyl)-1-oxoisoindolin-4-yl)oxy)ethoxy)ethyl)piperazin-1-yl)nicotinamide], the “AR Dmax” value is reported as “C (C <= 50)” and the DC50 was ≥ 100 nM.

Consider `CC1(C)[C@H](NC(=O)c2ccc(N3CCN(CCCCCOc4ccc5c(c4)C(=O)N(c4ccc(F)cc4F)C5=O)CC3)nc2)C(C)(C)[C@H]1Oc1ccc(C#N)c(Cl)c1` [PROTAC-41, N-((1r,3r)-3-(3-chloro-4-cyanophenoxy)-2,2,4,4-tetramethylcyclobutyl)-6-(4-(5-((2-(2,4-difluorophenyl)-1,3-dioxoisoindolin-5-yl)oxy)pentyl)piperazin-1-yl)nicotinamide], for which the “AR Dmax” value is “C (C <= 50)” and the DC50 is ≥ 100 nM.

Consider `CC1(C)[C@H](NC(=O)c2ccc(N3CCN(CCCCCOc4ccc5c(c4)C(=O)N(c4ccc(C#N)[nH]c4=O)C5=O)CC3)nc2)C(C)(C)[C@H]1Oc1ccc(C#N)c(Cl)c1` [PROTAC-42, N-((1r,3r)-3-(3-chloro-4-cyanophenoxy)-2,2,4,4-tetramethylcyclobutyl)-6-(4-(5-((2-(6-cyano-2-oxo-1,2-dihydropyridin-3-yl)-1,3-dioxoisoindolin-5-yl)oxy)pentyl)piperazin-1-yl)nicotinamide], for which the “AR Dmax” value is on record as “C (C <= 50)” and the DC50 lay within 10 to 100 nM.

Take `CC1(C)[C@H](NC(=O)c2ccc(N3CCC(CN4CCN(c5ccc6c(c5)C(=O)N(c5ccc(=O)[nH]c5)C6=O)CC4)CC3)cc2)C(C)(C)[C@H]1Oc1ccc(C#N)c(Cl)c1` [PROTAC-43, N-((1r,3r)-3-(3-chloro-4-cyanophenoxy)-2,2,4,4-tetramethylcyclobutyl)-4-(4-((4-(1,3-dioxo-2-(6-oxo-1,6-dihydropyridin-3-yl)isoindolin-5-yl)piperazin-1-yl)methyl)piperidin-1-yl)benzamide]: the “AR Dmax” value was “C (C <= 50)” and the DC50 was ≥ 100 nM.

`CC1(C)[C@H](NC(=O)c2ccc(N3CCC(CN4CCN(c5ccc6c(c5)C(=O)N(c5ccc[nH]c5=O)C6=O)CC4)CC3)cc2)C(C)(C)[C@H]1Oc1ccc(C#N)c(Cl)c1` [PROTAC-44, rac-N-((1r,3r)-3-(3-chloro-4-cyanophenoxy)-2,2,4,4-tetramethylcyclobutyl)-4-(4-((4-(1,3-dioxo-2-(2-oxo-1,2-dihydropyridin-3-yl)isoindolin-5-yl)piperazin-1-yl)methyl)piperidin-1-yl)benzamide]: the “AR Dmax” value is “C (C <= 50)” and the DC50 is ≥ 100 nM.
